CC1(C)[C@H](C(=O)O)N2C(=O)[C@@H](NC(=O)Cc3ccccc3)[C@H]2S1=O (stereo partly drawn)
Settings | solubility (mole fraction)
in MIBK, 278.15 K | 0.00173
in MIBK, 287.85 K | 0.00184
in MIBK, 295.15 K | 0.00201
in MIBK, 297.95 K | 0.00213
in MIBK, 303.35 K | 0.00227
in MIBK, 308.05 K | 0.00238
in MIBK, 313.35 K | 0.00262
in MIBK, 317.65 K | 0.00278
in MIBK, 323.75 K | 0.00316
in ethyl acetate, 273.15 K | 0.00211
in ethyl acetate, 278.15 K | 0.00222
in ethyl acetate, 283.25 K | 0.00227
in ethyl acetate, 288.15 K | 0.00233
in ethyl acetate, 292.75 K | 0.00256
in ethyl acetate, 298.55 K | 0.0028
in ethyl acetate, 303.15 K | 0.00316
in ethyl acetate, 307.45 K | 0.00338
in ethyl acetate, 312.85 K | 0.00383
in ethyl acetate, 317.65 K | 0.0044
in ethyl acetate, 321.25 K | 0.00486
in n-butyl acetate, 273.15 K | 0.000603
in n-butyl acetate, 278.25 K | 0.000678
in n-butyl acetate, 281.95 K | 0.000735
in n-butyl acetate, 287.65 K | 0.000825
in n-butyl acetate, 292.55 K | 0.000979
in n-butyl acetate, 297.35 K | 0.0011
in n-butyl acetate, 302.95 K | 0.00134
in n-butyl acetate, 307.65 K | 0.00151
in n-butyl acetate, 312.65 K | 0.00166
in n-butyl acetate, 317.65 K | 0.00192
in toluene, 283.15 K | 2.74e-05
in toluene, 288.35 K | 3.68e-05
in toluene, 293.95 K | 5.26e-05
in toluene, 298.15 K | 6.12e-05
in toluene, 303.45 K | 6.97e-05
in toluene, 311.65 K | 8.7e-05
in toluene, 316.85 K | 0.000105
in toluene, 323.65 K | 0.000113

From BigSolDB 2.1
